Results taken from patent US20180291335A1, “MODIFIED POLYNUCLEOTIDES FOR ALTERING CELL PHENOTYPE” (ModernaTX, Inc., priority 2012, published 2018).

Key:
[1] = system: human embryonic kidney 293 (HEK293) cells; assay: Cytotoxicity of NTPs, CYTO TOX-GLO assay; format: cell-based
Protocol: The cytotoxicity of natural and modified nucleoside triphosphates (NTPs) alone or in combination with other bases, was analyzed in human embryonic kidney 293 (HEK293) cells in the absence of transfection reagent. […] 10 ul of the NTPs outlined in Table 12 were combined with 10 ul of lipid dilution and incubated for 30 minutes to form a complex before 80 ul of the HEK293 cell suspension was added to the NTP complex.
Natural and modified NTPs were transfected at a concentration of 2.1 nM, 21 nM, 210 nM, 2.1 um, 21 uM, 210 um or 2.1 mM. NTPs in combination were transfected at a total concentration of NTPs of 8.4 nM, 84 nM, 840 nM, 8.4 uM, 84 uM, 840 uM and 8.4 mM. […] The cytotoxicity of the NTPs and the modified G-CSF mRNA was assayed at 4, 24, 48 and 72 hours post addition to the HEK293 cells using a CYTO TOX-GLO™ assay from Promega (Madison, Wis.) following the manufacturer protocol except pippeting was used for lysing the cells instead of shaking the plates.

[2] = system: tumor necrosis factor alpha (TNF-α); assay: In vitro screening in PBMC: tumor necrosis factor alpha induction by ELISA; format: cell-based, human
From the text: (§1) The supernatant was harvested and stored frozen until analyzed by ELISA to determine the G-CSF protein expression, and the induction of the cytokines interferon-alpha (IFN-α) and tumor necrosis factor alpha (TNF-α).

[3] = system: peripheral blood mononuclear cells (PBMC); assay: In vitro screening in PBMC: G-CSF protein expression by ELISA; format: cell-based, human
From the text: as §1

[4] = system: interferon-alpha (IFN-α); assay: In vitro screening in PBMC: interferon-alpha induction by ELISA; format: cell-based, human
From the text: as §1

[5] = PBMC Donor 1, 500 ng G-CSF mRNA
[6] = PBMC Donor 2, 500 ng G-CSF mRNA
[7] = PBMC Donor 3, 500 ng G-CSF mRNA

Adenine
percent of viable cells ([1]; HEK293, individual NTP 2.1 nM, 4 hr): 93.48% | percent of viable cells ([1]; HEK293, individual NTP 2.1 nM, 24 hr): 86.44% | percent of viable cells ([1]; HEK293, individual NTP 2.1 nM, 48 hr): 92.12% | percent of viable cells ([1]; HEK293, individual NTP 2.1 nM, 72 hr): 95.74% | percent of viable cells ([1]; HEK293, individual NTP 21 nM, 4 hr): 93.21% | percent of viable cells ([1]; HEK293, individual NTP 21 nM, 24 hr): 87.19% | percent of viable cells ([1]; HEK293, individual NTP 21 nM, 48 hr): 91.13% | percent of viable cells ([1]; HEK293, individual NTP 21 nM, 72 hr): 93.88% | percent of viable cells ([1]; HEK293, individual NTP 210 nM, 4 hr): 90.36% | percent of viable cells ([1]; HEK293, individual NTP 210 nM, 24 hr): 86.94% | percent of viable cells ([1]; HEK293, individual NTP 210 nM, 48 hr): 89.17% | percent of viable cells ([1]; HEK293, individual NTP 210 nM, 72 hr): 92.22% | percent of viable cells ([1]; HEK293, individual NTP 2.1 uM, 4 hr): 90.23% | percent of viable cells ([1]; HEK293, individual NTP 2.1 uM, 24 hr): 86.81% | percent of viable cells ([1]; HEK293, individual NTP 2.1 uM, 48 hr): 89.80% | percent of viable cells ([1]; HEK293, individual NTP 2.1 uM, 72 hr): 94.58% | percent of viable cells ([1]; HEK293, individual NTP 21 uM, 4 hr): 91.20% | percent of viable cells ([1]; HEK293, individual NTP 21 uM, 24 hr): 86.86% | percent of viable cells ([1]; HEK293, individual NTP 21 uM, 48 hr): 89.94% | percent of viable cells ([1]; HEK293, individual NTP 21 uM, 72 hr): 93.83% | percent of viable cells ([1]; HEK293, individual NTP 210 uM, 4 hr): 85.97% | percent of viable cells ([1]; HEK293, individual NTP 210 uM, 24 hr): 87.31% | percent of viable cells ([1]; HEK293, individual NTP 210 uM, 48 hr): 90.55% | percent of viable cells ([1]; HEK293, individual NTP 210 uM, 72 hr): 94.81% | percent of viable cells ([1]; HEK293, individual NTP 2.1 mM, 4 hr): 90.03% | percent of viable cells ([1]; HEK293, individual NTP 2.1 mM, 24 hr): 88.42% | percent of viable cells ([1]; HEK293, individual NTP 2.1 mM, 48 hr): 93.71% | percent of viable cells ([1]; HEK293, individual NTP 2.1 mM, 72 hr): 97.49%

Cc1c[nH]c(=O)nc1N [5-methyl cytosine]
percent of viable cells ([1]; human, 4 h, 2.1 nM): 92.23% | percent of viable cells ([1]; human, 4 h, 21 nM): 91.40% | percent of viable cells ([1]; human, 4 h, 210 nM): 92.31% | percent of viable cells ([1]; human, 4 h, 2.1 uM): 91.31% | percent of viable cells ([1]; human, 4 h, 21 uM): 91.16% | percent of viable cells ([1]; human, 4 h, 210 uM): 91.54% | percent of viable cells ([1]; human, 4 h, 2.1 mM): 92.01% | percent of viable cells ([1]; human, 24 h, 2.1 nM): 86.35% | percent of viable cells ([1]; human, 24 h, 21 nM): 86.37% | percent of viable cells ([1]; human, 24 h, 210 nM): 84.71% | percent of viable cells ([1]; human, 24 h, 2.1 uM): 85.14% | percent of viable cells ([1]; human, 24 h, 21 uM): 84.72% | percent of viable cells ([1]; human, 24 h, 210 uM): 85.76% | percent of viable cells ([1]; human, 24 h, 2.1 mM): 87.97% | percent of viable cells ([1]; human, 48 h, 2.1 nM): 88.18% | percent of viable cells ([1]; human, 48 h, 21 nM): 87.10% | percent of viable cells ([1]; human, 48 h, 210 nM): 86.44% | percent of viable cells ([1]; human, 48 h, 2.1 uM): 86.18% | percent of viable cells ([1]; human, 48 h, 21 uM): 85.74% | percent of viable cells ([1]; human, 48 h, 210 uM): 85.94% | percent of viable cells ([1]; human, 48 h, 2.1 mM): 87.29% | percent of viable cells ([1]; human, 72 h, 2.1 nM): 91.93% | percent of viable cells ([1]; human, 72 h, 21 nM): 92.10% | percent of viable cells ([1]; human, 72 h, 210 nM): 89.97% | percent of viable cells ([1]; human, 72 h, 2.1 uM): 90.92% | percent of viable cells ([1]; human, 72 h, 21 uM): 92.26% | percent of viable cells ([1]; human, 72 h, 210 uM): 88.10% | percent of viable cells ([1]; human, 72 h, 2.1 mM): 96.08%

Cn1cc([C@@H]2O[C@H](CO)[C@@H](O)[C@H]2O)c(=O)[nH]c1=O [N1-methyl pseudouridine]
percent of viable cells ([1]; human, 4 h, 2.1 nM): 91.89% | percent of viable cells ([1]; human, 4 h, 21 nM): 91.44% | percent of viable cells ([1]; human, 4 h, 210 nM): 92.15% | percent of viable cells ([1]; human, 4 h, 2.1 uM): 90.41% | percent of viable cells ([1]; human, 4 h, 21 uM): 91.48% | percent of viable cells ([1]; human, 4 h, 210 uM): 91.43% | percent of viable cells ([1]; human, 4 h, 2.1 mM): 92.45% | percent of viable cells ([1]; human, 24 h, 2.1 nM): 87.79% | percent of viable cells ([1]; human, 24 h, 21 nM): 86.85% | percent of viable cells ([1]; human, 24 h, 210 nM): 85.89% | percent of viable cells ([1]; human, 24 h, 2.1 uM): 85.72% | percent of viable cells ([1]; human, 24 h, 21 uM): 85.17% | percent of viable cells ([1]; human, 24 h, 210 uM): 86.48% | percent of viable cells ([1]; human, 24 h, 2.1 mM): 88.92% | percent of viable cells ([1]; human, 48 h, 2.1 nM): 87.81% | percent of viable cells ([1]; human, 48 h, 21 nM): 86.72% | percent of viable cells ([1]; human, 48 h, 210 nM): 87.38% | percent of viable cells ([1]; human, 48 h, 2.1 uM): 85.85% | percent of viable cells ([1]; human, 48 h, 21 uM): 87.52% | percent of viable cells ([1]; human, 48 h, 210 uM): 86.02% | percent of viable cells ([1]; human, 48 h, 2.1 mM): 89.84% | percent of viable cells ([1]; human, 72 h, 2.1 nM): 92.98% | percent of viable cells ([1]; human, 72 h, 21 nM): 92.84% | percent of viable cells ([1]; human, 72 h, 210 nM): 92.40% | percent of viable cells ([1]; human, 72 h, 2.1 uM): 92.25% | percent of viable cells ([1]; human, 72 h, 21 uM): 93.83% | percent of viable cells ([1]; human, 72 h, 210 uM): 93.03% | percent of viable cells ([1]; human, 72 h, 2.1 mM): 96.80%

B1: α-thiocytidine: G-CSF mRNA (SEQ ID NO: 408) fully modified with α-thiocytidine (nucleic acid)
chain: GGGAAAUAAGAGAGAAAAGAAGAGUAAGAAGAAAUAUAAGAGCCACCAUGGCCGGUCCCGCGACCCAAAGCCCCAUGAAACUUAUGGCCCUGCAGUUGCUGCUUUGGCACUCGGCCCUCUGGACAGUCCAAGAAGCGACUCCUCUCGGACCUGCCUCAUCGUUGCCGCAGUCAUUCCUUUUGAAGUGUCUGGAGCAGGUGCGAAAGAUUCAGGGCGAUGGAGCCGCACUCCAAGAGAAGCUCUGCGCGACAUACAAACUUUGCCAUCCCGAGGAGCUCGUACUGCUCGGGCACAGCUUGGGGAUUCCCUGGGCUCCUCUCUCGUCCUGUCCGUCGCAGGCUUUGCAGUUGGCAGGGUGCCUUUCCCAGCUCCACUCCGGUUUGUUCUUGUAUCAGGGACUGCUGCAAGCCCUUGAGGGAAUCUCGCCAGAAUUGGGCCCGACGCUGGACACGUUGCAGCUCGACGUGGCGGAUUUCGCAACAACCAUCUGGCAGCAGAUGGAGGAACUGGGGAUGGCACCCGCGCUGCAGCCCACGCAGGGGGCAAUGCCGGCCUUUGCGUCCGCGUUUCAGCGCAGGGCGGGUGGAGUCCUCGUAGCGAGCCACCUUCAAUCAUUUUUGGAAGUCUCGUACCGGGUGCUGAGACAUCUUGCGCAGCCGUGAAGCGCUGCCUUCUGCGGGGCUUGCCUUCUGGCCAUGCCCUUCUUCUCUCCCUUGCACCUGUACCUCUUGGUCUUUGAAUAAAGCCUGAGUAGGAAG
modifications: α-thiocytidine modified; Description of Artificial Sequence: Synthetic Transcript Sequence
TNF-α Expression [2, 5]: 300 pg/mL | TNF-α Expression [2, 6]: 273 pg/mL | TNF-α Expression [2, 7]: 277 pg/mL | G-CSF Protein Expression [3, 5]: 105 pg/mL | G-CSF Protein Expression [3, 6]: 264 pg/mL | G-CSF Protein Expression [3, 7]: 245 pg/mL | IFN-α Expression [4, 5]: 1,138 pg/ml | IFN-α Expression [4, 6]: 565 pg/mL | IFN-α Expression [4, 7]: 695 pg/mL | cytokine induction ([4]; PBMC, G-CSF mRNA, result in words): increase cytokine stimulation

B2: mCherry: control mCherry mRNA (SEQ ID NO: 410, Cap1) fully modified with 5-methylcytosine and pseudouridine (nucleic acid)
chain: GGGAAAUAAGAGAGAAAAGAAGAGUAAGAAGAAAUAUAAGAGCCACCAUGGUAUCCAAGGGGGAGGAGGACAACAUGGCGAUCAUCAAGGAGUUCAUGCGAUUCAAGGUGCACAUGGAAGGUUCGGUCAACGGACACGAAUUUGAAAUCGAAGGAGAGGGUGAAGGAAGGCCCUAUGAAGGGACACAGACCGCGAAACUCAAGGUCACGAAAGGGGGACCACUUCCUUUCGCCUGGGACAUUCUUUCGCCCCAGUUUAUGUACGGGUCCAAAGCAUAUGUGAAGCAUCCCGCCGAUAUUCCUGACUAUCUGAAACUCAGCUUUCCCGAGGGAUUCAAGUGGGAGCGGGUCAUGAACUUUGAGGACGGGGGUGUAGUCACCGUAACCCAAGACUCAAGCCUCCAAGACGGCGAGUUCAUCUACAAGGUCAAACUGCGGGGGACUAACUUUCCGUCGGAUGGGCCGGUGAUGCAGAAGAAAACGAUGGGAUGGGAAGCGUCAUCGGAGAGGAUGUACCCAGAAGAUGGUGCAUUGAAGGGGGAGAUCAAGCAGAGACUGAAGUUGAAAGAUGGGGGACAUUAUGAUGCCGAGGUGAAAACGACAUACAAAGCGAAAAAGCCGGUGCAGCUUCCCGGAGCGUAUAAUGUGAAUAUCAAGUUGGAUAUUACUUCACACAAUGAGGACUACACAAUUGUCGAACAGUACGAACGCGCUGAGGGUAGACACUCGACGGGAGGCAUGGACGAGUUGUACAAAUGAUAAGCUGCCUUCUGCGGGGCUUGCCUUCUGGCCAUGCCCUUCUUCUCUCCCUUGCACCUGUACCUCUUGGUCUUUGAAUAAAGCCUGAGUAGGAAG
modifications: Cap1; 5mC/pseudoU modified; Description of Artificial Sequence: Synthetic Transcript Sequence
TNF-α Expression [2, 5]: 67 pg/mL | TNF-α Expression [2, 6]: 100 pg/mL | TNF-α Expression [2, 7]: 133 pg/mL | G-CSF Protein Expression [3, 5]: 5 pg/mL | G-CSF Protein Expression [3, 6]: 168 pg/mL | G-CSF Protein Expression [3, 7]: 164 pg/mL | IFN-α Expression [4, 5]: 100 pg/mL | IFN-α Expression [4, 6]: 75 pg/mL | IFN-α Expression [4, 7]: 143 pg/mL
